Like-named read-outs stand apart in the source and are kept apart here. *1 amine or outer side, *2 acyl side, *3 side chain or, on linkers, in order; H or OH if unused. Where a SMILES comes first, the peptide text is derived from it. Side-chain parts run from the residue outwards. [ ]: non-standard residue; d: D form. The star is where a group is joined. αMePhe(2-F) = C[C@](N)(Cc1ccccc1F)C(=O)O; γGlu = O=C(O)[C@H](CCC(=O)[*:2])N[*:1]; αMeY = C[C@](N)(Cc1ccc(O)cc1)C(=O)O; αMeF = C[C@](N)(Cc1ccccc1)C(=O)O; αMeL = CC(C)C[C@](C)(N)C(=O)O; Lauroyl = CCCCCCCCCCCC(=O)*; Orn = NCCC[C@H](N)C(=O)O; AEEA = NCCOCCOCC(=O)O; Aib = CC(C)(N)C(=O)O
Key:
hGLP-1R = hGLP-1R (Homo sapiens, UniProt P43220); experiment: Functional cAMP formation (HTRF) in HEK-293 clonal cells expressing hGLP-1R, 0.1% bovine casein, without or with 1.0% human serum albumin; assay type: cell-based; design: expressed in transfected cells; details: 37° C.; for EC50: geometric mean, read-out: hGLP-1R EC50, nM (SEM, n); for Emax: HEK293, 0.1% bovine casein and 1.0% human serum albumin, percent of maximal response to GLP-1(7-36)NH2, read-out: hGLP-1R Emax, % ± SEM
How it was run: (§1)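 Readings of the HTRF 665/620 nm ratio, which falls as cAMP rises, were converted to nM cAMP using a standard curve after 30 min peptide exposure at 37° C.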

[1] = target: T1, human GIP receptor (hGIPR) (Homo sapiens, UniProt P48546); experiment: [125I]-GIP binding, SPA with membranes of CHO cells expressing hGIPR; details: human GIPR; geometric mean (SEM, n); read-out: Binding Affinity Ki, nM (SEM, n) hGIPR
T1 construct: expressed in transfected cells; crude membranes
T1 sequence (P48546 22-466): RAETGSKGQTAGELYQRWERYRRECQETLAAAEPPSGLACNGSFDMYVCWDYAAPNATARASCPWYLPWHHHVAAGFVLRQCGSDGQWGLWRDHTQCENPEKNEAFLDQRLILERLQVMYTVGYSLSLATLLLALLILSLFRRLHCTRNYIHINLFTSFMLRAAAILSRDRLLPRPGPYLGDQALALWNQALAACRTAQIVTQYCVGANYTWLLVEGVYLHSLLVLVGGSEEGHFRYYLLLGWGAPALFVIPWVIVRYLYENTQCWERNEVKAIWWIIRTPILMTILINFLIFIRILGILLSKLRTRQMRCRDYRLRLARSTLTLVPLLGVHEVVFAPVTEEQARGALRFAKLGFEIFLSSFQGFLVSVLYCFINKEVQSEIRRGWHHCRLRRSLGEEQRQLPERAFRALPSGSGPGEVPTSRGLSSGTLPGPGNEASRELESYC

hGIPR = target: T2, hGIPR (Homo sapiens, UniProt P48546); experiment: Functional cAMP formation (HTRF) in HEK-293 clonal cells expressing hGIPR, 0.1% bovine casein, without or with 1.0% human serum albumin; assay type: cell-based; details: 37° C.; for Emax: percent of maximal response to GIP(1-42)NH2, read-out: hGIPR Emax, % ± SEM; for EC50: geometric mean, read-out: hGIPR EC50, nM (SEM, n)
T2 construct: expressed in transfected cells
T2 sequence (P48546 22-466): T1 sequence (P48546 22-466)
How it was run: as §1

[2] = target: T3, human GLP-1 receptor (hGLP-1R) (Homo sapiens, UniProt P43220); experiment: [125I]-GLP-1 binding, SPA with membranes of HEK293 cells expressing hGLP-1R; details: human GLP-1R; geometric mean (SEM, n); read-out: Binding Affinity Ki, nM (SEM, n) hGLP-1R
T3 construct: expressed in transfected cells; crude membranes

hGCGR = target: T4, hGCGR (Homo sapiens, UniProt P47871); experiment: Functional cAMP formation (HTRF) in HEK-293 clonal cells expressing hGCGR, 0.1% bovine casein, without or with 1.0% human serum albumin; assay type: cell-based; details: 37° C., geometric mean, read-out: hGCGR EC50, nM (SEM, n)
T4 construct: expressed in transfected cells
How it was run: as §1

[3] = 0.1% bovine casein and 1.0% human serum albumin
[4] = cAMP, 0.1% bovine casein (no human serum albumin)
[5] = HEK293, 0.1% bovine casein and 1.0% human serum albumin
[6] = HEK293, cAMP, 0.1% bovine casein, arithmetic mean

T4 sequence (P47871 26-477): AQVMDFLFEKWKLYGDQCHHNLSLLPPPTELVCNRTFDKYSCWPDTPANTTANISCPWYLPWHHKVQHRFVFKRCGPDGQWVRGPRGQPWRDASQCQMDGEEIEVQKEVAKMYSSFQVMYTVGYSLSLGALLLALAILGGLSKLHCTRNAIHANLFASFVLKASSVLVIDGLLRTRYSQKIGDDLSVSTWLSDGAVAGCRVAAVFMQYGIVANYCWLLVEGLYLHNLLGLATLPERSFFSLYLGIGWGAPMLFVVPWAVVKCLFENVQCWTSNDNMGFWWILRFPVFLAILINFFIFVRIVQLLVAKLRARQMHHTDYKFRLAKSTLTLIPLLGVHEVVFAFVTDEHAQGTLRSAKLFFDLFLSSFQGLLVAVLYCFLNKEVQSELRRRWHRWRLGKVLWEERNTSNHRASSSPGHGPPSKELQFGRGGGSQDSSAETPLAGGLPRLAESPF
T3 sequence (P43220 24-463): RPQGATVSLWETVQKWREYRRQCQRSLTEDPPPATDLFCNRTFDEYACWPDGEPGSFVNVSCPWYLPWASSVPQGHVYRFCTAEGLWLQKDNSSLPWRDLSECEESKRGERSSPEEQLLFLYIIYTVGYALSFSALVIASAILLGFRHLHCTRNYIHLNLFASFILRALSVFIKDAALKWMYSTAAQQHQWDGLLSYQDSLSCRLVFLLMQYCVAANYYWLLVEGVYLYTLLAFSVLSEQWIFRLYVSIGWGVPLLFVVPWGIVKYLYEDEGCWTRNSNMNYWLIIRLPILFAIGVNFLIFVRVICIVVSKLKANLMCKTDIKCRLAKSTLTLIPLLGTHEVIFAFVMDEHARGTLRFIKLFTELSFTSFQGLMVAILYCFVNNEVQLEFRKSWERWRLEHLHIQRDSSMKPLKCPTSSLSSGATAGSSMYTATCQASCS
hGLP-1R, sequence (P43220 24-463): as above

Compound	EC50 (hGLP-1R; [3])	EC50 (hGLP-1R; [4])	Ki [1]	Emax (hGIPR; [5])	EC50 (hGIPR; [4])	Ki [2]	EC50 (hGCGR; [3])	EC50 (hGCGR; [4])	Emax (hGLP-1R)	Emax (hGIPR; [6])	EC50 (hGIPR; [3])
CCCCCCCCCCCC(=O)N[C@@H](CCC(=O)NCCOCCOCC(=O)NCCOCCOCC(=O)NCCCC[C@H](NC(=O)[C@H](CCCN)NC(=O)[C@H](CC(=O)O)NC(=O)[C@H](CC(C)C)NC(=O)[C@](C)(CC(C)C)NC(=O)[C@@H](NC(=O)C(C)(C)NC(=O)[C@H](CCCCNC(=O)COCCOCCNC(=O)COCCOCCNC(=O)CC[C@H](NC(=O)CCCCCCCCCCC)C(=O)O)NC(=O)[C@H](CC(=O)O)NC(=O)[C@H](CO)NC(=O)[C@@H](NC(=O)[C@](C)(Cc1ccccc1F)NC(=O)[C@@H](NC(=O)CNC(=O)[C@H](CCC(=O)O)NC(=O)C(C)(C)NC(=O)[C@@H](N)Cc1ccc(O)cc1)[C@@H](C)O)[C@@H](C)O)[C@@H](C)CC)C(=O)N[C@@H](C)C(=O)N[C@@H](CCC(N)=O)C(=O)NC(C)(C)C(=O)N[C@@H](CCC(=O)O)C(=O)N[C@@H](Cc1ccccc1)C(=O)N[C@H](C(=O)N[C@H](CCC(=O)O)C(=O)N[C@@](C)(Cc1ccc(O)cc1)C(=O)N[C@@H](CC(C)C)C(=O)N[C@H](C(=O)N[C@@H](CCC(=O)O)C(=O)NCC(=O)NCC(=O)N1CCC[C@H]1C(=O)N[C@@H](CO)C(=O)N[C@@H](CO)C(=O)NCC(=O)N[C@@H](C)C(=O)N1CCC[C@H]1C(=O)N1CCC[C@H]1C(=O)N1CCC[C@H]1C(=O)N[C@@H](CO)C(N)=O)[C@@H](C)CC)[C@@H](C)CC)C(=O)O [Example 292]	4.35 nM	0.0758 nM	0.0161 nM	88.4%	0.0062 nM	0.289 nM	> 9950 nM	> 9950 nM	–	–	–
CCCCCCCCCCCC(=O)N[C@@H](CCC(=O)NCCOCCOCC(=O)NCCOCCOCC(=O)NCCCC[C@H](NC(=O)[C@H](CCCN)NC(=O)[C@H](CC(=O)O)NC(=O)[C@H](CC(C)C)NC(=O)[C@](C)(CC(C)C)NC(=O)[C@@H](NC(=O)[C@H](CO)NC(=O)[C@H](CCCCNC(=O)COCCOCCNC(=O)COCCOCCNC(=O)CC[C@H](NC(=O)CCCCCCCCCCC)C(=O)O)NC(=O)[C@H](CC(=O)O)NC(=O)[C@H](CO)NC(=O)[C@@H](NC(=O)[C@](C)(Cc1ccccc1F)NC(=O)[C@@H](NC(=O)CNC(=O)[C@H](CCC(=O)O)NC(=O)C(C)(C)NC(=O)[C@@H](N)Cc1ccc(O)cc1)[C@@H](C)O)[C@@H](C)O)[C@@H](C)CC)C(=O)N[C@@H](C)C(=O)N[C@@H](CCC(N)=O)C(=O)NC(C)(C)C(=O)N[C@@H](CCC(=O)O)C(=O)N[C@@](C)(Cc1ccccc1)C(=O)N[C@H](C(=O)N[C@H](CCC(=O)O)C(=O)N[C@@](C)(Cc1ccc(O)cc1)C(=O)N[C@@H](CC(C)C)C(=O)N[C@H](C(=O)N[C@@H](CCC(=O)O)C(=O)NCC(=O)NCC(=O)N1CCC[C@H]1C(=O)N[C@@H](CO)C(=O)N[C@@H](CO)C(=O)NCC(=O)N[C@@H](C)C(=O)N1CCC[C@H]1C(=O)N1CCC[C@H]1C(=O)N1CCC[C@H]1C(=O)N[C@@H](CO)C(N)=O)[C@@H](C)CC)[C@@H](C)CC)C(=O)O [Example 293] (H-Y[Aib]EGT[αMePhe(2-F)]TSDK([AEEA-AEEA-γGlu-Lauroyl])SI[αMeL]LD[Orn]K([AEEA-AEEA-γGlu-Lauroyl])AQ[Aib]E[αMeF]I[dE][αMeY]LIEGGPSSGAPPPS-NH2)	–	0.102 nM	0.022 nM	96.6%	0.00915 nM	0.211 nM	> 9950 nM	> 9950 nM	99.4%	–	–
CCCCCCCCCCCC(=O)N[C@@H](CCC(=O)NCCOCCOCC(=O)NCCOCCOCC(=O)NCCCC[C@H](NC(=O)[C@H](CCCN)NC(=O)[C@H](CC(=O)O)NC(=O)[C@H](CC(C)C)NC(=O)[C@](C)(CC(C)C)NC(=O)[C@@H](NC(=O)[C@H](CO)NC(=O)[C@H](Cc1ccncc1)NC(=O)[C@H](CC(=O)O)NC(=O)[C@H](CO)NC(=O)[C@@H](NC(=O)[C@](C)(Cc1ccccc1F)NC(=O)[C@@H](NC(=O)CNC(=O)[C@H](CCC(=O)O)NC(=O)C(C)(C)NC(=O)[C@@H](N)Cc1ccc(O)cc1)[C@@H](C)O)[C@@H](C)O)[C@@H](C)CC)C(=O)N[C@@H](C)C(=O)N[C@@H](CCC(N)=O)C(=O)NC(C)(C)C(=O)N[C@@H](CCCCNC(=O)COCCOCCNC(=O)COCCOCCNC(=O)CC[C@H](NC(=O)CCCCCCCCCCC)C(=O)O)C(=O)N[C@@H](Cc1ccccc1)C(=O)N[C@H](C(=O)N[C@H](CCC(=O)O)C(=O)N[C@@](C)(Cc1ccc(O)cc1)C(=O)N[C@@H](CC(C)C)C(=O)N[C@H](C(=O)N[C@@H](CCCN)C(=O)NCC(=O)NCC(=O)N1CCC[C@H]1C(=O)N[C@@H](CO)C(=O)N[C@@H](CO)C(=O)NCC(=O)N[C@@H](C)C(=O)N1CCC[C@H]1C(=O)N1CCC[C@H]1C(=O)N1CCC[C@H]1C(=O)N[C@@H](CO)C(N)=O)[C@@H](C)CC)[C@@H](C)CC)C(=O)O [Example 298]	–	0.19 nM	0.0131 nM	95%	0.0107 nM	0.119 nM	> 9950 nM	> 9950 nM	–	97.4%	–
CCCCCCCCCCCC(=O)N[C@@H](CCC(=O)NCCOCCOCC(=O)NCCOCCOCC(=O)NCCCC[C@H](NC(=O)[C@H](CO)NC(=O)[C@@H]1CCCN1C(=O)[C@@H]1CCCN1C(=O)[C@@H]1CCCN1C(=O)[C@H](C)NC(=O)CNC(=O)[C@H](CO)NC(=O)[C@H](CO)NC(=O)[C@@H]1CCCN1C(=O)CNC(=O)CNC(=O)[C@H](CCC(=O)O)NC(=O)[C@@H](NC(=O)[C@H](CC(C)C)NC(=O)[C@](C)(Cc1ccc(O)cc1)NC(=O)[C@@H](CCC(=O)O)NC(=O)[C@@H](NC(=O)[C@H](Cc1ccccc1)NC(=O)[C@H](CCC(=O)O)NC(=O)C(C)(C)NC(=O)[C@H](CCC(N)=O)NC(=O)[C@H](C)NC(=O)[C@H](CCCCNC(=O)COCCOCCNC(=O)COCCOCCNC(=O)CC[C@H](NC(=O)CCCCCCCCCCC)C(=O)O)NC(=O)[C@H](CCCN)NC(=O)[C@H](CC(=O)O)NC(=O)[C@H](CC(C)C)NC(=O)[C@](C)(CC(C)C)NC(=O)[C@@H](NC(=O)C(C)(C)NC(=O)[C@H](Cc1ccc(O)cc1)NC(=O)[C@H](CC(=O)O)NC(=O)[C@H](CO)NC(=O)[C@@H](NC(=O)[C@](C)(Cc1ccccc1F)NC(=O)[C@@H](NC(=O)CNC(=O)[C@H](CCC(=O)O)NC(=O)C(C)(C)NC(=O)[C@@H](N)Cc1ccc(O)cc1)[C@@H](C)O)[C@@H](C)O)[C@@H](C)CC)[C@@H](C)CC)[C@@H](C)CC)C(N)=O)C(=O)O [Example 302]	–	0.0917 nM	0.0228 nM	86.3%	0.00916 nM	0.137 nM	> 9950 nM	> 9950 nM	99.4%	100%	0.453 nM

— patent US20230265151A1, “GIP/GLP1 CO-AGONIST COMPOUNDS” (priority 2020, published 2023)
